Patent US8003695B2 (Chroma Therapeutics Ltd., priority 2006, dated 2011)

Molecular target: T1, IKBKB (IKKβ) (Homo sapiens, UniProt O14920)
T1 construct: purchased Invitrogen (Paisley, UK)
T1 sequence (O14920 1-756): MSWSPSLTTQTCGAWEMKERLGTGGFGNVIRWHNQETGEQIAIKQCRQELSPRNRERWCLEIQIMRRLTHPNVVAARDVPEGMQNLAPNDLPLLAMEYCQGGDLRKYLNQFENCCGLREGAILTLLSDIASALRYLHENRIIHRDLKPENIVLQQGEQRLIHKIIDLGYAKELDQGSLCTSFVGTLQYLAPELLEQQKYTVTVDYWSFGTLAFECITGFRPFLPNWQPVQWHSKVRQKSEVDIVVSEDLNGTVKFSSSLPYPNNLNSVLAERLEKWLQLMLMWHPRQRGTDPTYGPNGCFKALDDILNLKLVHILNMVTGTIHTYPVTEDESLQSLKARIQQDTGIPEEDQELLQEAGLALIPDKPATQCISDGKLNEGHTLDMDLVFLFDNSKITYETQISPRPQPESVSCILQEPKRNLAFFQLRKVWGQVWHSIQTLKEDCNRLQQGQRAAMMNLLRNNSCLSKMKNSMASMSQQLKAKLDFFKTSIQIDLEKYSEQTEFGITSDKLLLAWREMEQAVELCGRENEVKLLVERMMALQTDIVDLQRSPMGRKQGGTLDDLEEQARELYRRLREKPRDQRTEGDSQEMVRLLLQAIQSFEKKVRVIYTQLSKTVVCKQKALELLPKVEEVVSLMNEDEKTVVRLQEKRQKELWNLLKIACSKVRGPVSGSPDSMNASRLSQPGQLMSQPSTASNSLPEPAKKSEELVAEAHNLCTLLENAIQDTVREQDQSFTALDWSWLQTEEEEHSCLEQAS
Assay: IKKβ Enzyme Assay (Z'-LYTE, Invitrogen)
Format: biochemical
Details: ATP at or close to Km; read-out: Inhibitor activity versus IKKβ
Protocol: The ability of compounds to inhibit IKKβ kinase activity was measured in an assay performed by Invitrogen (Paisley, UK). The Z′-LYTE™ biochemical assay employs a fluorescence-based, coupled-enzyme format and is based on the differential sensitivity of phosphorylated and non-phosphorylated peptides to proteolytic cleavage. The peptide substrate is labelled with two fluorophores—one at each end—that make up a FRET pair. In the primary reaction, the kinase transfers the gamma-phosphate of ATP to a single serine or threonine residue in a synthetic FRET-peptide. In the secondary reaction, a site-specific protease recognizes and cleaves non-phosphorylated FRET-peptides. Phosphorylation of FRET-peptides suppresses cleavage by the Development Reagent. Cleavage disrupts FRET between the donor (i.e., coumarin) and acceptor (i.e. fluorescein) fluorophores on the FRET-peptide, whereas uncleaved, phosphorylated FRET-peptides maintain FRET. A […] method, which calculates the ratio (the Emission Ratio) of donor emission to acceptor emission after excitation of the donor fluorophore at 400 nm, is used to quantitate reaction progress.
The final 10 μL Kinase Reaction consists of 0.9-8.0 ng IKBKB (IKKβ), 2 μM Ser/Thr 05 Peptide and ATP in 50 mM HEPES pH 7.5, 0.01% BRIJ-35, 10 mM MgCl2, 1 mM EGTA. The assay is performed at an ATP concentration at, or close to the Km. After the 60 minute Kinase Reaction incubation at room temperature, 5 μL of a 1:128 dilution of Development Reagent is added. The assay plate is incubated for a further 60 minutes at room temperature and read on a fluorescence plate reader.
Duplicate data points are generated from a ⅓ log dilution series of a stock solution of test compound in DMSO. Nine dilutions steps are made from a top concentration of 10 μM, and a ‘no compound’ blank is included. Data is collected and analysed using XLfit software from IDBS. The dose response curve is curve fitted to model number 205 (sigmoidal dose-response model). From the curve generated, the concentration giving 50% inhibition is determined and reported.

| IC50 [nM] | SMILES |
| --- | --- |
| < 1000 | C[C@@H](O)[C@H](NCc1cccc(-c2cc(C(N)=O)c(NC(N)=O)s2)c1)C(=O)O [Example 61, N-{3-[4-carbamoyl-5-(carbamoylamino)thiophen-2-yl]benzyl}-L-threonine] |
| < 1000 | Cc1cc(-c2cc(C(N)=O)c(NC(N)=O)s2)ccc1/C=C/CN[C@@H](CC(C)C)C(=O)O [Example 70, N-[(2E)-3-{4-[4-carbamoyl-5-(carbamoylamino)thiophen-2-yl]-2-methylphenyl}prop-2-en-1-yl]-L-leucine] |
| < 1000 | CC(C)C[C@H](NCCc1ccc(-c2cc(C(N)=O)c(NC(N)=O)s2)cc1)C(=O)O [Example 63] |
| < 1000 | NC(=O)Nc1sc(-c2ccc(CN[C@@H](Cc3ccccc3)C(=O)O)cc2)cc1C(N)=O [Example 52, N-{-4-[4-Carbamoyl-5-(carbamoylamino)-2-thienyl]benzyl}-L-phenylalanine] |
| < 1000 | NC(=O)Nc1sc(-c2ccc(/C=C/CN[C@H](C(=O)O)C3CCCCC3)cc2)cc1C(N)=O [Example 83, (2S)-{[(2E)-3-{4-[4-carbamoyl-5-(carbamoylamino)thiophen-2-yl]phenyl}prop-2-en-1-yl]amino}(cyclohexyl)ethanoic acid] |
| < 1000 | CC(C)(C)OC[C@H](NC/C=C/c1ccc(-c2cc(C(N)=O)c(NC(N)=O)s2)cc1)C(=O)O [Example 82, O-tert-butyl-N-[(2E)-3-{4-[4-carbamoyl-5-(carbamoylamino)thiophen-2-yl]phenyl}prop-2-en-1-yl]-L-serine] |
| < 1000 | CC(C)C[C@H](NCCc1ccc(-c2cc(C(N)=O)c(NC(N)=O)s2)c(Cl)c1)C(=O)O [Example 64, N-(2-{-4-[4-Carbamoyl-5-(carbamoylamino)-2-thienyl]-3-chlorophenyl}ethyl)-L-leucine] |
| < 1000 | NC(=O)Nc1sc(-c2cccc(CN[C@H](C(=O)O)c3ccccc3)c2)cc1C(N)=O [Example 58, (2S)-({3-[4-carbamoyl-5-(carbamoylamino)-2-thienyl]benzyl}amino)(phenyl)acetic acid] |
| < 1000 | CC(C)C[C@H](NCCCOc1ccc(-c2cc(C(N)=O)c(NC(N)=O)s2)cc1)C(=O)O [Example 65, N-(3-{4-[4-Carbamoyl-5-(carbamoylamino)-2-thienyl]phenoxy}propyl)-L-leucine] |
| < 1000 | CC(C)C[C@H](NCCCCCOc1ccc(-c2cc(C(N)=O)c(NC(N)=O)s2)cc1)C(=O)O [Example 67] |
| < 1000 | Cc1cc(-c2cc(C(N)=O)c(NC(N)=O)s2)ccc1CN[C@@H](CC(C)C)C(=O)O [Example 56, N-{4-[4-carbamoyl-5-(carbamoylamino)-2-thienyl]-2-methylbenzyl}-L-leucine] |
| < 1000 | NC(=O)Nc1sc(-c2ccc(CN[C@@H](C(=O)O)c3ccccc3)cc2)cc1C(N)=O [Example 53, (2R)-({-4-[4-Carbamoyl-5-(carbamoylamino)-2-thienyl]benzyl}amino)(phenyl)acetic acid] |
| < 1000 | CC(C)C[C@H](NCCc1cc(-c2cc(C(N)=O)c(NC(N)=O)s2)ccc1F)C(=O)O [Example 90, N-(2-{5-[4-carbamoyl-5-(carbamoylamino)thiophen-2-yl]-2-fluorophenyl}ethyl)-L-leucine] |
| < 1000 | CC(C)C[C@H](NCc1ccc(-c2cc(C(N)=O)c(NC(N)=O)s2)c(Cl)c1)C(=O)O [Example 55, N{4-[4-carbamoyl-5-(carbamoylamino)-2-thienyl]-3-chlorobenzyl}-L-leucine] |
| < 1000 | NC(=O)Nc1sc(-c2ccc(CN[C@H](C(=O)O)c3ccc4ccccc4c3)cc2)cc1C(N)=O [Example 54, (2S)-({-4-[4-Carbamoyl-5-(carbamoylamino)-2-thienyl]benzyl}amino)(2-naphthyl)acetic acid] |
| < 1000 | CC(C)C[C@H](NCCc1cccc(-c2cc(C(N)=O)c(NC(N)=O)s2)c1)C(=O)O [Example 87, N-(2-{3-[4-carbamoyl-5-(carbamoylamino)-2-thienyl]phenyl}ethyl)-L-leucine] |
| < 1000 | CC(C)C[C@H](NC/C=C/c1cccc(-c2cc(C(N)=O)c(NC(N)=O)s2)c1)C(=O)O [Example 93, N-[(2E)-3-{3-[4-carbamoyl-5-(carbamoylamino)-2-thienyl]phenyl}prop-2-en-1-yl]-L-leucine] |
| < 1000 | NC(=O)Nc1sc(-c2ccc(CN[C@H](C(=O)O)c3ccccc3)cc2)cc1C(N)=O [Example 50, (2S)-({4-[4-carbamoyl-5-(carbamoylamino)-2-thienyl]benzyl}amino)(phenyl)acetic acid] |
| < 1000 | CC(C)C[C@H](NC/C=C/c1ccc(-c2cc(C(N)=O)c(NC(N)=O)s2)c(F)c1)C(=O)O [Example 74, N-[(2E)-3-{4-[4-carbamoyl-5-(carbamoylamino)thiophen-2-yl]-3-fluorophenyl}prop-2-en-1-yl]-L-leucine] |
| < 1000 | CC(C)C[C@H](NCc1ccc(-c2cc(C(N)=O)c(NC(N)=O)s2)cc1)C(=O)O [Example 51, N-{4-[4-Carbamoyl-5-(carbamoylamino)-2-thienyl]benzyl}-L-leucine] |
| < 1000 | Cc1cc(/C=C/CN[C@@H](CC(C)C)C(=O)O)ccc1-c1cc(C(N)=O)c(NC(N)=O)s1 [Example 73, N-[(2E)-3-{4-[4-carbamoyl-5-(carbamoylamino)thiophen-2-yl]-3-methylphenyl}prop-2-en-1-yl]-L-leucine] |
| < 1000 | CC(C)(C)OC[C@H](NCc1cccc(-c2cc(C(N)=O)c(NC(N)=O)s2)c1)C(=O)O [Example 60, O-tert-butyl-N-{3-[4-carbamoyl-5-(carbamoylamino)thiophen-2-yl]benzyl}-L-serine] |
| < 1000 | CC(C)C[C@H](NC/C=C/c1ccc(-c2cc(C(N)=O)c(NC(N)=O)s2)cc1F)C(=O)O [Example 71, N-[(2E)-3-{4-[4-carbamoyl-5-(carbamoylamino)thiophen-2-yl]-2-fluorophenyl}prop-2-en-1-yl]-L-leucine] |
| < 1000 | NC(=O)Nc1sc(-c2cccc(CN[C@H](C(=O)O)C3CCCCC3)c2)cc1C(N)=O [Example 59, (2S)-({3-[4-carbamoyl-5-(carbamoylamino)-2-thienyl]benzyl}amino)(cyclohexyl)acetic acid] |
| < 1000 | CC(C)C[C@H](NC/C=C/c1cc(F)c(-c2cc(C(N)=O)c(NC(N)=O)s2)cc1F)C(=O)O [Example 77, N-[(2E)-3-{4-[4-carbamoyl-5-(carbamoylamino)thiophen-2-yl]-2,5-difluorophenyl}prop-2-en-1-yl]-L-leucine] |
| < 1000 | NC(=O)Nc1sc(-c2ccc(/C=C/CN[C@H](C(=O)O)c3ccccc3)cc2)cc1C(N)=O [Example 81, (2S)-{[(2E)-3-{4-[4-carbamoyl-5-(carbamoylamino)-2-thienyl]phenyl}prop-2-en-1-yl]amino}(phenyl)acetic acid] |
| < 1000 | CC(C)C[C@H](NC/C=C/c1ccc(-c2cc(C(N)=O)c(NC(N)=O)s2)cc1C(F)(F)F)C(=O)O [Example 76, N-[(2E)-3-{4-(4-carbamoyl-5-(carbamoylamino)thiophen-2-yl]-2-(trifluoromethyl)phenyl}prop-2-en-1-yl]-L-leucine] |
| < 1000 | CC(C)C[C@H](NCCCCCOc1ccc(-c2cc(C(N)=O)c(NC(N)=O)s2)c(Cl)c1)C(=O)O [Example 68, N-(5-{4-[4-Carbamoyl-5-(carbamoylamino)-2-thienyl]-3-chlorophenoxy}pentyl)-L-leucine] |
| < 1000 | CC(C)C[C@H](NC/C=C/c1ccc(-c2cc(C(N)=O)c(NC(N)=O)s2)cc1Cl)C(=O)O [Example 72, N-[(2E)-3-{4-[4-carbamoyl-5-(carbamoylamino)thiophen-2-yl]-2-chlorophenyl}prop-2-en-1-yl]-L-leucine] |

| SMILES | IC50 [nM] |
| --- | --- |
| Cc1cc(-c2cc(C(N)=O)c(NC(N)=O)s2)cc(C)c1/C=C/CN[C@@H](CC(C)C)C(=O)O [Example 80] | < 1000 |
